Results as given in US8697692B2, “Pyrrolo [3,2-c] pyridine-4-one 2-indolinone protein kinase inhibitors” (Shanghai Hengrui Pharmaceutical Co., Ltd., priority 2006, dated 2014).

System: A431 cell
Assay: Cell Proliferation Inhibition EGFR Assay (SRB method)
Type: cell-based, homo sapient
Conditions: Homo sapiens, A-431; A431 cells, 72 hours exposure, Sulforhodamine B; read-out: IC50 (A431)
How it was run: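 A431 cells grown to ~85% confluence, then exposed 72 hours at 37° C to 6 to 7 serial concentrations of compound in DMEM/F12 + 10% FBS, final DMSO ≤0.5%. Growth measured by TCA fixation and sulforhodamine B staining; IC50 calculated from inhibition rates.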

IC50 | SMILES
330 nM | CCN(CC)CCN1CCc2[nH]c(/C=C3\C(=O)Nc4cccc(Br)c43)c(C)c2C1=O [Example 30, 2-(4-Bromo-2-oxo-1,2-dihydro-indol-3-ylidenemethyl)-5-(2-diethylamino-ethyl)-3-methyl-1,5,6,7-tetrahydro-pyrrolo[3,2-c]pyridin-4-one]
380 nM | CCN(CC)CCN1CCc2[nH]c(/C=C3\C(=O)Nc4cccc(-c5cccc(F)c5F)c43)c(C)c2C1=O [Example 39, 5-(2-diethylamino-ethyl)-2-[4-(2,3-difluoro-phenyl)-2-oxo-1,2-dihydro-indol-3-ylidenemethyl]-3-methyl-1,5,6,7-tetrahydro-pyrrolo[3,2-c]pyridin-4-one]
15900 nM | Cc1c(/C=C2\C(=O)Nc3ncc(Br)cc32)[nH]c2c1C(=O)N(CCN1CCOCC1)CC2 [Example 50, 2-(5-Bromo-2-oxo-1,2-dihydro-pyrrolo[2,3-b]pyridin-3-ylidenemethyl)-3-methyl-5-(2-morpholin-4-yl-ethyl)-1,5,6,7-tetrahydro-pyrrolo[3,2-c]pyridin-4-one]
16500 nM | Cc1c(/C=C2\C(=O)Nc3cccc(CCO)c32)[nH]c2c1C(=O)N(CCN1CCOCC1)CC2 [Example 42, 2-[4-(2-Hydroxy-ethyl)-2-oxo-1,2-dihydro-indol-3-ylidenemethyl]-3-methyl-5-(2-morpholin-4-yl-ethyl)-1,5,6,7-tetrahydro-pyrrolo[3,2-c]pyridin-4-one]
1900 nM | Cc1c(/C=C2\C(=O)Nc3cccc(C4CCNCC4)c32)[nH]c2c1C(=O)N(CCN1CCOCC1)CC2 [Example 52, 3-Methyl-5-(2-morpholin-4-yl-ethyl)-2-(2-oxo-4-piperidin-4-yl-1,2-dihydro-indol-3-ylidenemethyl)-1,5,6,7-tetrahydro-pyrrolo[3,2-c]pyridin-4-one]
2190 nM | Cc1c(/C=C2\C(=O)Nc3cccc(-c4cccc(F)c4F)c32)[nH]c2c1C(=O)N(CCN1CCCC1)CC2 [Example 59, 2-[4-(2,3-Difluoro-phenyl)-2-oxo-1,2-dihydro-indol-3-ylidenemethyl]-3-methyl-5-(2-pyrrolidin-1-yl-ethyl)-1,5,6,7-tetrahydro-pyrrolo[3,2-c]pyridin-4-one]
3230 nM | CCN(CC)CCN1CCc2[nH]c(/C=C3\C(=O)Nc4cccc(-c5ccc(Cl)cc5F)c43)c(C)c2C1=O [Example 34, 2-[4-(4-Chloro-2-fluoro-phenyl)-2-oxo-1,2-dihydro-indol-3-ylidenemethyl]-5-(2-diethylamino-ethyl)-3-methyl-1,5,6,7-tetrahydro-pyrrolo[3,2-c]pyridin-4-one]
350 nM | CCN(CC)CCN1CCc2[nH]c(/C=C3\C(=O)Nc4cccc(C5CCNCC5)c43)c(C)c2C1=O [Example 31, 5-(2-Diethylamino-ethyl)-3-methyl-2-(2-oxo-4-piperidin-4-yl-1,2-dihydro-indol-3-ylidenemethyl)-1,5,6,7-tetrahydro-pyrrolo[3,2-c]pyridin-4-one]
10200 nM | Cc1c(/C=C2\C(=O)Nc3ccc(Cl)cc32)[nH]c2c1C(=O)N(CCN1CCOCC1)CC2 [Example 16, 2-(5-Chloro-2-oxo-1,2-dihydro-indol-3-ylidenemethyl)-3-methyl-5-(2-morpholin-4-yl-ethyl)-1,5,6,7-tetrahydro-pyrrolo[3,2-c]pyridin-4-one]
4350 nM | CCN(CC)CCN1CCc2[nH]c(/C=C3\C(=O)Nc4ccc(OC)cc43)c(C)c2C1=O [Example 35, 5-(2-Diethylamino-ethyl)-2-(5-methoxy-2-oxo-1,2-dihydro-indol-3-ylidenemethyl)-3-methyl-1,5,6,7-tetrahydro-pyrrolo[3,2-c]pyridin-4-one]
3850 nM | CCN(CC)CCN1CCc2[nH]c(/C=C3\C(=O)Nc4cccc(CCO)c43)c(C)c2C1=O [Example 37, 5-(2-Diethylamino-ethyl)-2-[4-(2-hydroxy-ethyl)-2-oxo-1,2-dihydro-indol-3-ylidenemethyl]-3-methyl-1,5,6,7-tetrahydro-pyrrolo[3,2-c]pyridin-4-one]
7320 nM | CCN(CC)CCN1CCc2[nH]c(/C=C3\C(=O)Nc4cccc(-c5cccc(Cl)c5F)c43)c(C)c2C1=O [Example 36, 2-[4-(3-Chloro-2-fluoro-phenyl)-2-oxo-1,2-dihydro-indol-3-ylidenemethyl]-5-(2-diethylamino-ethyl)-3-methyl-1,5,6,7-tetrahydro-pyrrolo[3,2-c]pyridin-4-one]
67 nM | CCN(CC)CCN1CCc2[nH]c(/C=C3\C(=O)Nc4ncnc(Nc5ccc(F)c(Cl)c5)c43)c(C)c2C1=O [Example 12, 4-(3-Chlor O-4-fluoro-phenylamino)-5-[5-(2-diethylamino-ethyl)-3-methyl-4-oxo-4,5,6,7-tetrahydro-1H-pyrrolo[3,2-c]pyridine-2-ylmethylene]-5,7-dihydro-pyrrolo[2,3-d]pyrimidin-6-one]
330 nM | Cc1c(/C=C2\C(=O)Nc3ncnc(Nc4ccc(F)c(Cl)c4)c32)[nH]c2c1C(=O)N(CCN1CCOCC1)CC2 [Example 24, 4-(3-Chloro-4-fluoro-phenylamino)-5-[3-methyl-5-(2-morpholin-4-yl-ethyl)-4-oxo-4,5,6,7-tetrahydro-1H-pyrrolo[3,2-c]pyridine-2-ylmethylenene]-5,7-dihydro-pyrrolo[2,3-d]pyrimidin-6-one]
